Source: PMC9385671 (Nature Communications, 2022)
Values joined by “and” are separate entries in the source; they are usually repeats but may differ in a detail not shown here. Equal entries are not always repeated. Where two headings read alike, the source gives them in different places.

Tests used:
[1] = Side-chain acidity: pKa by 1H NMR titration of free amino acids; type: physicochemical; details: for pKa: aqueous KH2PO4 solution titrated with sodium hydroxide; for pKa of the phenolic side-chain: experimental error ±0.15
Method: 10–20 mg of an amino acid, 50 mg of KH2PO4 was dissolved in 15 ml of water and titrated by sodium hydroxide solution to distinct pH values. 500 μl were taken to NMR tubes, 50 μl deuterium oxidewas added and ^1H NMR spectra were measured using W5 pulse tray water suppression at 500 MHz frequency. The chemical shifts were plotted against pH and analyzed using Henderson-Hasselbalch equation to deliver the pKa values. Experimental error ±0.15.

MjTyrRS variants [2] = biological target: T1, MjTyrRS variants (Methanocaldococcus jannaschii, UniProt Q57834, D158A/F108Q/H70G/L162N/L65E/Q109C/Y32G); assay: Intact cell fluorescence assay of HYs incorporation into SUMO-sfGFP; type: cell-based; details: for Fluorescence Instensity: Synthetase B48RS
T1 construct: expressed in transfected cells
T1 sequence (Q57834 whole entry Y32G/L65E/H70G/F108Q/Q109C/D158A/L162N): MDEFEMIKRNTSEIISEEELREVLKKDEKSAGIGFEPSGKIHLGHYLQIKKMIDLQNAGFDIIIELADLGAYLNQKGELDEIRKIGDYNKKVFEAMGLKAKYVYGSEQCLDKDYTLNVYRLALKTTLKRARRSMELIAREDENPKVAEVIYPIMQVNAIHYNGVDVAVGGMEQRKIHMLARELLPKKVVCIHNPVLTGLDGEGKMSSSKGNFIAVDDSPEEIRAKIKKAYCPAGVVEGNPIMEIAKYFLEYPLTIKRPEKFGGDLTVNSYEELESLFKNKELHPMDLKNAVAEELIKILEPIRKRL
Method: (§1) The intact cell fluorescence assay was performed to approximately compare the Br2Y and Cl2Y incorporation efficiency of screened MjTyrRSs as well as to estimate their promiscuity against other Tyr analogues. Since the gene expression of SUMO-sfGFP was driven by T5 promoter on the one round positive selection plasmid, SUMO-sfGFP can be directly expressed in DH10b strain. […] Next day, an overnight culture was inoculated in a well at a ratio of 1:100 containing 300 μL TB medium supplemented with 50 μg/mL Kan,100 μg/mL Amp, 0.5 mM IPTG as well as 1 mM HYs while the corresponding control lacked the HYs. Cells were grown in 96 well plates (Ibidi) with orbital shaking (2 mm amplitude) for 24 h at 37 °C covered with a gas-permeable foil (Sigma Aldrich, Taufkirchen, Germany). […] After 24 h incubation, the optimal density and fluorescence was measured via top reading after the gas-permeable foil was removed. Each measurement was done in triplicate.

MjTyrRS variants [3] = assay: as above; type: cell-based, Methanocaldococcus jannaschii
Method: as §1

MjTyrRS variants [4] = biological target: T2, MjTyrRS variants (Methanocaldococcus jannaschii, UniProt Q57834, D158A/F108N/H70G/L162C/L65E/Y32V); assay: as above; type: cell-based; details: Synthetase C64RS
T2 construct: expressed in transfected cells
T2 sequence (Q57834 whole entry Y32V/L65E/H70G/F108N/D158A/L162C): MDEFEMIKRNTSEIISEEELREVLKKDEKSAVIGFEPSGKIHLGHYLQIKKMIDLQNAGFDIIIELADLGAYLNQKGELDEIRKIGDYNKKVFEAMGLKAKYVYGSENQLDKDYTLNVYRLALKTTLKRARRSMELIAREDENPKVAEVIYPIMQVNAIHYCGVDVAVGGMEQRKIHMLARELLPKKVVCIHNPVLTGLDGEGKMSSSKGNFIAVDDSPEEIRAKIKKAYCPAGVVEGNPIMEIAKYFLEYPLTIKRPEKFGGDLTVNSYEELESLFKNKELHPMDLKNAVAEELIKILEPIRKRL
Method: as §1

FtsZ-YFP-mts = FtsZ-YFP-mts (Escherichia coli, UniProt P0A9A6); set-up: made in house; host or cells: E. coli BL21(DE3) for the wild type; details: intensity line profile
Sequence of FtsZ-YFP-mts (P0A9A6 1-366): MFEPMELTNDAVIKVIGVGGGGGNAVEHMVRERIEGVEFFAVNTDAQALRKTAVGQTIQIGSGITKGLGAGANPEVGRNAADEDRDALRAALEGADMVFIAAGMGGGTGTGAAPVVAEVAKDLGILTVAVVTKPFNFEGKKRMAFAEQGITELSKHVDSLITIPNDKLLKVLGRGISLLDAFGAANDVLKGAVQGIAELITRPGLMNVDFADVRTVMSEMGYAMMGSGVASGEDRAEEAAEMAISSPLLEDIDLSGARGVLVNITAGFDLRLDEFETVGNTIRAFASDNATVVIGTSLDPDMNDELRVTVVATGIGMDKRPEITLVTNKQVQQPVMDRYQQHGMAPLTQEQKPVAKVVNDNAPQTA
Method: 1,2-dioleoyl-sn-glycero-3-phosphocholine (DOPC):1,2-dioleoyl-sn-glycero-3-phospho-(1’-rac-glycerol) (DOPG), 70:30 mol % mixture, was dissolved in chloroform in a quartz container, then dehumidified under a gas nitrogen stream. Chloroform traces were further removed through desiccation (1 h). Afterwards, the lipid film was hydrated to a final concentration of 4 mg/ml in supported lipid bilayers (SLB) buffer (50 mM Tris-HCl at pH 7.5, 150 mM KCl), and incubated at 37 °C for 30 min. The lipid film was then completely resuspended by vortexing rigorously to obtain multilamellar vesicles of different sizes. This mixture was then placed in a bath sonicator where shear forces help to reduce the size of the vesicles, giving rise to small unilamellar vesicles (SUVs). The SUV dispersion were stored at −20 °C as 20 µl aliquots.
Glass coverslips (1.5#, 24 x 24 mm) were cleaned by piranha solution overnight, followed by extensive washing with milliQ H2O. Then glass coverslips were blown dry with compressed air. The reaction chamber was prepared by attaching a plastic ring on a cleaned glass coverslip using ultraviolet glue (Thorlabs No. 68). For supported lipid bilayer formation, the SUV dispersion was diluted in SLB buffer to 0.5 mg/ml, of which 75 µl was added to the reaction chamber. Adding CaCl2 to a final concentration of 3 mM induced fusion of the vesicles and the formation of a lipid bilayer on coversilde. After 20 min of incubation at 37 °C, the sample was rinsed with 2 ml pre-warmed SLB buffer.
Polymerization was induced by adding 4 mM GTP.
The UltimateFocus feature of DeltaVision Elite maintains the focus plane constant in time. […] Fluorescence imaging was performed using a standard FITC filter set. Images were acquired with a PCO sCMOS 5.5 camera (PCO, Germany) controlled by the softWoRx Software (GE Healthcare Life Sciences, Germany). For time-lapse experiments, images were acquired every 3 s with a 0.05 s exposure time and light illumination shuttered between acquisitions.

[5] = experimental error ±0.15, read-out: Ammonium pKa
[6] = experimental error ±0.15, read-out: pKa of the phenolic side-chain

In the case of `N[C@@H](Cc1cc(Cl)c(O)c(Cl)c1)C(=O)O` [Cl2Y, 3,5-dichloro-L-tyrosine], the pKa [1, 5] is reported as 9.4, the pKa [1, 6] is reported as 6.5 and the “pKa of the phenolic side-chain” value [1] is reported as 6.52. The “Fluorescence Instensity” value (MjTyrRS variants [2]) was 0.5689 a.u. and 0.6362 a.u. and 0.4688 a.u, the “Incorporation efficiency (sfGFP fluorescence) versus control without HYs additions” value (MjTyrRS variants [2]; mutant B48RS, 1 mM HY, E. coli DH10b) was “more than 100 fold” and the “Fluorescence Instensity” value (MjTyrRS variants [3]; Synthetase B4RS) was 0.07529 a.u. and 0.09709 a.u. and 0.05112 a.u. For the same molecule, the “Fluorescence Instensity” value (MjTyrRS variants [3]; Synthetase B12RS) was 0.3851 a.u. and 0.4746 a.u. and 0.2926 a.u, the “Fluorescence Instensity” value (MjTyrRS variants [3]; Synthetase B37RS) was 0.3145 a.u. and 0.3721 a.u. and 0.2575 a.u and the “Fluorescence Instensity” value (MjTyrRS variants [3]; Synthetase B39RS) was 0.2554 a.u. and 0.3069 a.u. and 0.2029 a.u. For the same molecule, the “Fluorescence Instensity” value (MjTyrRS variants [3]; Synthetase C5RS) was 0.7019 a.u. and 0.7995 a.u. and 0.5915 a.u, the “Fluorescence Instensity” value (MjTyrRS variants [3]; Synthetase C45RS) was 0.8209 a.u. and 0.9248 a.u. and 0.7159 a.u and the “Fluorescence Instensity” value (MjTyrRS variants [3]; Synthetase C61RS) was 0.5873 a.u. and 0.6501 a.u. and 0.5303 a.u. For the same molecule, the “Fluorescence Instensity” value (MjTyrRS variants [4]) was 0.3285 a.u. and 0.3594 a.u. and 0.2924 a.u.

In the case of `N[C@@H](Cc1ccc(O)c(Cl)c1)C(=O)O` [ClY, 3-chloro-L-tyrosine], the pKa [1, 5] is reported as 9.5, the pKa [1, 6] is reported as 8.3 and the “pKa of the phenolic side-chain” value [1] is reported as 8.31. The “Fluorescence Instensity” value (MjTyrRS variants [2]) was 0.5472 a.u. and 0.654 a.u. and 0.4364 a.u, the “Fluorescence Instensity” value (MjTyrRS variants [3]; Synthetase B12RS) was 0.3856 a.u. and 0.4561 a.u. and 0.2986 a.u and the “Fluorescence Instensity” value (MjTyrRS variants [3]; Synthetase B37RS) was 0.2734 a.u. and 0.2944 a.u. and 0.2525 a.u. For the same molecule, the “Fluorescence Instensity” value (MjTyrRS variants [3]; Synthetase C5RS) was 0.8727 a.u. and 1 a.u. and 0.7434 a.u, the “Fluorescence Instensity” value (MjTyrRS variants [3]; Synthetase C45RS) was 0.8577 a.u. and 0.9724 a.u. and 0.7484 a.u and the “Fluorescence Instensity” value (MjTyrRS variants [3]; Synthetase C61RS) was 0.5458 a.u. and 0.6071 a.u. and 0.5015 a.u. The “Fluorescence Instensity” value (MjTyrRS variants [4]) was 0.3514 a.u. and 0.3883 a.u. and 0.3147 a.u.

For `N[C@@H](Cc1ccc(O)cc1)C(=O)O` [Y, tyrosine], the Gray value (FtsZ-YFP-mts; Distance(um) 5.15845) was 0.2436, the Gray value (FtsZ-YFP-mts; Distance(um) 5.17427) was 0.2678 and the Gray value (FtsZ-YFP-mts; Distance(um) 5.1901) was 0.2809. For the same molecule, the Gray value (FtsZ-YFP-mts; Distance(um) 5.20592) was 0.2851, the Gray value (FtsZ-YFP-mts; Distance(um) 5.22175) was 0.3113 and the Gray value (FtsZ-YFP-mts; Distance(um) 5.23757) was 0.3327. It also gave a Gray value (FtsZ-YFP-mts; Distance(um) 5.25339) of 0.3531, a Gray value (FtsZ-YFP-mts; Distance(um) 5.26922) of 0.3835 and a Gray value (FtsZ-YFP-mts; Distance(um) 5.28504) of 0.428. It also gave a Gray value (FtsZ-YFP-mts; Distance(um) 5.30086) of 0.443, a Gray value (FtsZ-YFP-mts; Distance(um) 5.31669) of 0.4411 and a Gray value (FtsZ-YFP-mts; Distance(um) 5.33251) of 0.4633. The Gray value (FtsZ-YFP-mts; Distance(um) 5.34833) was 0.4809, the Gray value (FtsZ-YFP-mts; Distance(um) 5.36416) was 0.4782 and the Gray value (FtsZ-YFP-mts; Distance(um) 5.37998) was 0.498. For the same molecule, the Gray value (FtsZ-YFP-mts; Distance(um) 5.3958) was 0.5435, the Gray value (FtsZ-YFP-mts; Distance(um) 5.41163) was 0.5554 and the Gray value (FtsZ-YFP-mts; Distance(um) 5.42745) was 0.5565. For the same molecule, the Gray value (FtsZ-YFP-mts; Distance(um) 5.44327) was 0.5888, the Gray value (FtsZ-YFP-mts; Distance(um) 5.4591) was 0.6168 and the Gray value (FtsZ-YFP-mts; Distance(um) 5.47492) was 0.6475. It also gave a Gray value (FtsZ-YFP-mts; Distance(um) 5.49074) of 0.6743, a Gray value (FtsZ-YFP-mts; Distance(um) 5.50657) of 0.698 and a Gray value (FtsZ-YFP-mts; Distance(um) 5.52239) of 0.7626. The Gray value (FtsZ-YFP-mts; Distance(um) 5.53821) was 0.7361, the Gray value (FtsZ-YFP-mts; Distance(um) 5.55404) was 0.7938 and the Gray value (FtsZ-YFP-mts; Distance(um) 5.56986) was 0.8828. The Gray value (FtsZ-YFP-mts; Distance(um) 5.58569) was 0.899, the Gray value (FtsZ-YFP-mts; Distance(um) 5.60151) was 0.8493 and the Gray value (FtsZ-YFP-mts; Distance(um) 5.61733) was 0.8767. The Gray value (FtsZ-YFP-mts; Distance(um) 5.63316) was 0.9446, the Gray value (FtsZ-YFP-mts; Distance(um) 5.64898) was 1 and the Gray value (FtsZ-YFP-mts; Distance(um) 5.6648) was 0.9652. It also gave a Gray value (FtsZ-YFP-mts; Distance(um) 5.68063) of 0.9584, a Gray value (FtsZ-YFP-mts; Distance(um) 5.69645) of 0.9755 and a Gray value (FtsZ-YFP-mts; Distance(um) 5.71227) of 0.9816. For the same molecule, the Gray value (FtsZ-YFP-mts; Distance(um) 5.7281) was 0.9099, the Gray value (FtsZ-YFP-mts; Distance(um) 5.74392) was 0.8492 and the Gray value (FtsZ-YFP-mts; Distance(um) 5.75974) was 0.8638. It also gave a Gray value (FtsZ-YFP-mts; Distance(um) 5.77557) of 0.7917, a Gray value (FtsZ-YFP-mts; Distance(um) 5.79139) of 0.7498 and a Gray value (FtsZ-YFP-mts; Distance(um) 5.80721) of 0.6513. For the same molecule, the “Fluorescence Instensity” value (MjTyrRS variants [2]) was 0.00506 a.u. and 0.00513 a.u. and 0.00494 a.u, the “Fluorescence Instensity” value (MjTyrRS variants [3]; Synthetase B4RS) was 0.06037 a.u. and 0.07682 a.u. and 0.04915 a.u and the “Fluorescence Instensity” value (MjTyrRS variants [3]; Synthetase B37RS) was 0.1466 a.u. and 0.1756 a.u. and 0.1118 a.u. For the same molecule, the “Fluorescence Instensity” value (MjTyrRS variants [3]; Synthetase B39RS) was 0.1833 a.u. and 0.2205 a.u. and 0.1319 a.u, the “Fluorescence Instensity” value (MjTyrRS variants [3]; Synthetase C5RS) was 0.01571 a.u. and 0.01574 a.u. and 0.0156 a.u and the “Fluorescence Instensity” value (MjTyrRS variants [4]) was 0.01243 a.u. and 0.01248 a.u. and 0.01236 a.u.
